In the supplement of paper PMC11061612:

What was measured:
[1] = system: ECC10 (Gastric Carcinoma); test: Bliss excess, mean over the matrix (fraction); higher = more synergy
Outline: (§1)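 Cell lines in DMEM/F12 or RPMI with 10% FBS were plated in 1536-well plates, held 24 hours at 37°C, 5% CO2, then given two-drug dose matrices for 72 hours (DMSO typically 0.2%). Viability was read by CellTiter-Glo 2.0 luminescence and scaled as inhibition from 0 (vehicle wells) to 1 (blank wells). Combination Emax is the second-highest inhibition in the matrix; Bliss excess is observed combination effect minus expected EA + EB − EA·EB, EA and EB being single-agent effects.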

[2] = system: NCI-H1666 (Lung Adenocarcinoma); test: as above
Outline: as §1

NY (Osteosarcoma) = test: as above
Outline: as §1

PA-1 (Ovarian Carcinoma) = test: as above
Outline: as §1

[3] = system: ONS-76 (Other Solid Carcinomas); test: as above
Outline: as §1

U-2-OS (Osteosarcoma) = test: as above
Outline: as §1

[4] = system: OS-RC-2 (Kidney Carcinoma); test: as above
Outline: as §1

[5] = system: NCI-H1581 (Non-Small Cell Lung Carcinoma); test: as above
Outline: as §1

[6] = system: CCK-81 (Colorectal Carcinoma); test: as above
Outline: as §1

FU97 (Gastric Carcinoma) = test: as above
Outline: as §1

[7] = system: NCI-H1693 (Lung Adenocarcinoma); test: as above
Outline: as §1

[8] = system: COLO-824 (Breast Carcinoma); test: as above
Outline: as §1

[9] = system: COR-L311 (Small Cell Lung Carcinoma); test: as above
Outline: as §1

CAS-1 (Glioblastoma) [10] = test: as above
Outline: as §1

[11] = system: KARPAS-422 (B-Cell Non-Hodgkin's Lymphoma); test: as above
Outline: as §1

Hs-445 (Non-Cancerous) = test: as above
Outline: as §1

[12] = system: SISO (Cervical Carcinoma); test: as above
Outline: as §1

[13] = system: NCI-H2141 (Small Cell Lung Carcinoma); test: combination Emax (second highest fraction inhibited in the dose matrix, 72 h); higher = more inhibition; extreme values may be limits of the assay
Outline: as §1

[14] = system: COLO-824 (Breast Carcinoma); test: as above
Outline: as §1

CAS-1 (Glioblastoma) [15] = test: as above
Outline: as §1
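For Bliss excess, mean over the matrix in this document: after 72 h of two-drug dosing.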

Row | SMILES | Bliss excess [1] | Bliss excess [2] | Bliss excess (NY (Osteosarcoma)) | Bliss excess (PA-1 (Ovarian Carcinoma)) | Bliss excess [3] | Bliss excess (U-2-OS (Osteosarcoma)) | Bliss excess [4] | Bliss excess [5] | Bliss excess [6] | Bliss excess (FU97 (Gastric Carcinoma)) | Bliss excess [7] | Bliss excess [8] | Bliss excess [9] | Bliss excess (CAS-1 (Glioblastoma) [10]) | Bliss excess [11] | Bliss excess (Hs-445 (Non-Cancerous)) | Bliss excess [12] | combination Emax [13] | combination Emax [14] | combination Emax (CAS-1 (Glioblastoma) [15])
1 | CN(C)CCCOc1ccc(-c2ccc3ncc4c(c3c2)n(C2CCOCC2)c(=O)n4C)cn1 [AZD0156] + C=CCn1c(=O)c2cnc(Nc3ccc(N4CCN(C)CC4)cc3)nc2n1-c1cccc(C(C)(C)O)n1 [AZD1775] (first compound max 1 µM, partner max 1 µM) | -0.0379 | -0.0371 | -0.0212 | -0.0546 | -0.0487 | 0.0036 | -0.0652 | -0.0641 | -0.0039 | -0.0101 | -0.0242 | -0.0024 | -0.115 | -0.0512 | -0.0476 | 0.0015 | -0.0513 | 0.558 | 0.644 | 0.464
2 | CN(C)CCCOc1ccc(-c2ccc3ncc4c(c3c2)n(C2CCOCC2)c(=O)n4C)cn1 [AZD0156] + CCN(CCO)CCCOc1ccc2c(Nc3cc(CC(=O)Nc4cccc(F)c4)[nH]n3)ncnc2c1 [AZD2811] (first compound max 1 µM, 7x7, partner max 1 µM) | -0.0028 | -0.0661 | -0.0466 | 0.038 | -0.0169 | -0.0148 | -0.0312 | -0.007 | -0.0302 | -0.0947 | -0.0274 | -0.0565 | 0.0607 | 0.0191 | 0.0004 | 0.045 | 0.0081 | 0.289 | 0.818 | 0.263
3 | CN(C)CCCOc1ccc(-c2ccc3ncc4c(c3c2)n(C2CCOCC2)c(=O)n4C)cn1 [AZD0156] + C[C@@H]1COCCN1C2=NC(=NC(=C2)C3(CC3)[S@](=N)(=O)C)C4=C5C=CNC5=NC=C4 [AZD6738] (first compound max 1 µM, 7x7, partner max 10 µM) | -0.0104 | -0.0274 | -0.0372 | -0.0238 | 0.0096 | 0.0445 | -0.0419 | 0.0005 | -0.0161 | -0.0353 | -0.0424 | 0.0425 | 0.0265 | -0.0046 | -0.0444 | -0.0409 | 0.0119 | 0.462 | 0.712 | 0.582
4 | CN(C)CCCOc1ccc(-c2ccc3ncc4c(c3c2)n(C2CCOCC2)c(=O)n4C)cn1 [AZD0156] + O=C(c1cc(Cc2n[nH]c(=O)c3ccccc23)ccc1F)N1CCN(C(=O)C2CC2)CC1 [Olaparib] (first compound max 3 µM, partner max 3 µM) | 0.0522 | 0.0049 | -0.0279 | 0.122 | 0.0366 | 0.0203 | -0.0432 | 0.0465 | -0.0131 | -0.0154 | -0.0439 | 0.0729 | 0.092 | 0.0481 | 0.0171 | -0.0211 | 0.0631 | 0.192 | 0.383 | 0.449
5 | C=CCn1c(=O)c2cnc(Nc3ccc(N4CCN(C)CC4)cc3)nc2n1-c1cccc(C(C)(C)O)n1 [AZD1775] + C1CN(CCC1(C(=O)N[C@@H](CCO)C2=CC=C(C=C2)Cl)N)C3=NC=NC4=C3C=CN4 [Capivasertib] (first compound max 3 µM, partner max 3 µM) | -0.0156 | -0.0773 | -0.0746 | -0.0229 | -0.0258 | -0.0453 | -0.085 | 0.0271 | -0.0214 | 0.0946 | -0.0389 | -0.0289 | -0.0057 | 0.0104 | -0.0691 | -0.1 | -0.102 | 0.641 | 0.79 | 0.709
6 | C=CCn1c(=O)c2cnc(Nc3ccc(N4CCN(C)CC4)cc3)nc2n1-c1cccc(C(C)(C)O)n1 [AZD1775] + C[C@@H]1COCCN1C2=NC(=NC(=C2)C3(CC3)[S@](=N)(=O)C)C4=C5C=CNC5=NC=C4 [AZD6738] (first compound max 1 µM, partner max 10 µM) | 0.0364 | 0.0189 | -0.0386 | -0.01 | -0.0256 | 0.0364 | -0.0604 | 0.0228 | -0.0359 | -0.0414 | -0.0084 | 0.0691 | 0.0133 | -0.0535 | -0.0445 | -0.0017 | 0.0461 | 0.675 | 0.851 | 0.657
7 | C=CCn1c(=O)c2cnc(Nc3ccc(N4CCN(C)CC4)cc3)nc2n1-c1cccc(C(C)(C)O)n1 [AZD1775] + O=C(c1cc(Cc2n[nH]c(=O)c3ccccc23)ccc1F)N1CCN(C(=O)C2CC2)CC1 [Olaparib] (first compound max 1 µM, partner max 10 µM) | -0.019 | 0.0278 | -0.0731 | -0.0037 | -0.0826 | -0.0258 | -0.0981 | -0.0262 | 0.042 | -0.148 | -0.0137 | -0.0423 | -0.0848 | -0.0352 | -0.0648 | 0.0156 | 0.0151 | 0.528 | 0.685 | 0.52
8 | CCN(CCO)CCCOc1ccc2c(Nc3cc(CC(=O)Nc4cccc(F)c4)[nH]n3)ncnc2c1 [AZD2811] + C=CCn1c(=O)c2cnc(Nc3ccc(N4CCN(C)CC4)cc3)nc2n1-c1cccc(C(C)(C)O)n1 [AZD1775] (first compound max 1 µM, partner max 1 µM) | -0.0021 | -0.0282 | -0.0363 | 0.0565 | 0.018 | -0.0039 | -0.0231 | 0.154 | -0.037 | -0.0289 | 0.0099 | -0.0967 | -0.176 | 0.032 | -0.0349 | -0.004 | 0.0157 | 0.502 | 0.813 | 0.496
9 | CCN(CCO)CCCOc1ccc2c(Nc3cc(CC(=O)Nc4cccc(F)c4)[nH]n3)ncnc2c1 [AZD2811] + C[C@@H]1COCCN1C2=NC(=NC(=C2)C3(CC3)[S@](=N)(=O)C)C4=C5C=CNC5=NC=C4 [AZD6738] (first compound max 1 µM, 7x7, partner max 10 µM) | -0.0454 | -0.0633 | -0.0508 | -0.0116 | -0.0864 | -0.0297 | -0.0449 | -0.0438 | -0.0388 | -0.0795 | -0.0654 | -0.0843 | -0.0642 | -0.0818 | -0.0581 | -0.01 | 0.0006 | 0.502 | 0.802 | 0.544
10 | COc1nnc2ccc(N3CCC(c4ccc(OCCN5CCN(C)C(=O)[C@H]5C)cc4)CC3)nn12 [AZD5153] + CN(CC[C@H](CSC1=CC=CC=C1)NC2=C(C=C(C=C2)S(=O)(=O)NC(=O)C3=CC=C(C=C3)N4CCC(CC4)[C@H](C5=CC=CC=C5C6=CC=C(C=C6)Cl)O)S(=O)(=O)C(F)(F)F)CCO [AZD4320] (first compound max 1 µM, 7x7, partner max 1 µM) |  |  |  | 0.0659 |  | 0.0178 | 0.0115 |  |  |  | 0.04 | 0.057 | 0.0506 | 0.0455 |  | 0.085 | -0.0052 | 0.941 | 1 | 0.587
11 | Cc1c2c(nn1C)CSCc1cc(n(C)n1)CSc1cc(c3ccccc3c1)OCCCc1c(C(=O)O)n(C)c3c-2c(Cl)ccc13 [AZD5991] + CCN(CCO)CCCOc1ccc2c(Nc3cc(CC(=O)Nc4cccc(F)c4)[nH]n3)ncnc2c1 [AZD2811] (first compound max 1 µM, 7x7, partner max 1 µM) | 0.0058 | -0.0133 | 0.0542 | 0.0489 | 0.0619 | 0.0091 | -0.0634 | 0.108 | 0.0227 |  | 0.0102 | -0.0156 | -0.0057 | 0.061 | 0.0918 | 0.0869 | 0.108 | 0.428 | 0.815 | 0.705
12 | CC(=O)c1c(C)c2cnc(Nc3ccc(N4CCNCC4)cn3)nc2n(C2CCCC2)c1=O [Palbociclib] + CN(CC[C@H](CSC1=CC=CC=C1)NC2=C(C=C(C=C2)S(=O)(=O)NC(=O)C3=CC=C(C=C3)N4CCC(CC4)[C@H](C5=CC=CC=C5C6=CC=C(C=C6)Cl)O)S(=O)(=O)C(F)(F)F)CCO [AZD4320] (first compound max 10 µM, 7x7, partner max 1 µM) |  |  |  | -0.0315 |  | -0.0727 | -0.0999 |  |  |  | -0.0313 | 0.0326 | 0.0047 | -0.143 |  | 0.0465 | -0.0669 | 0.883 | 1 | 0.405
13 | CCc1c2c(nc3ccc(O)cc13)-c1cc3c(c(=O)n1C2)COC(=O)[C@]3(O)CC [SN-38] + O=C(c1cc(Cc2n[nH]c(=O)c3ccccc23)ccc1F)N1CCN(C(=O)C2CC2)CC1 [Olaparib] (first compound max 0.3 µM, 7x7, partner max 10 µM) | 0.119 | 0.0889 | 0.071 | 0.0044 | 0.05 | 0.0159 |  | 0.0009 | 0.0414 | -0.0043 |  |  |  | -0.0274 | 0.0276 | 0.0811 | 0.0546 | 0.423 |  | 0.609
14 | C[C@@H](c1ccc2nccn2c1)n1nnc2ncc(-c3cnn(C)c3)nc21 [Savolitinib] + CN(CC[C@H](CSC1=CC=CC=C1)NC2=C(C=C(C=C2)S(=O)(=O)NC(=O)C3=CC=C(C=C3)N4CCC(CC4)[C@H](C5=CC=CC=C5C6=CC=C(C=C6)Cl)O)S(=O)(=O)C(F)(F)F)CCO [AZD4320] (first compound max 1 µM, 7x7, partner max 1 µM) |  |  |  | -0.0096 |  | -0.0128 | -0.0618 |  |  |  | -0.0491 | -0.0101 | 0.0158 | -0.0975 |  | -0.0452 | -0.045 | 0.744 | 1 | 0.176
15 | CC(=O)Nc1cccc(-n2c(=O)n(C3CC3)c(=O)c3c(Nc4ccc(I)cc4F)n(C)c(=O)c(C)c32)c1 [Trametinib] + Cc1nc(-c2cn3c(n2)-c2ccc(-c4cnn(C(C)(C)C(N)=O)c4)cc2OCC3)n(C(C)C)n1 [Taselisib] (first compound max 1 µM, 7x7, partner max 10 µM) | 0.24 | 0.0857 | 0.0847 | 0.05 | 0.0124 | 0.122 | -0.0198 | 0.243 | 0.209 |  | 0.0507 | 0.21 | 0.0018 | 0.0153 | 0.0204 | 0.119 | 0.0809 | 0.317 | 0.976 | 0.957
